Patent publication US8404683B2, “Inhibitors of the interaction between MDM2 and P53” (Janssen Pharmaceutical N.V., priority 2004, dated 2013)
Structures can show the parent of a compound that is named as a salt.

What was measured:
U87MG cells = experiment: Proliferation assay (MTT-based) on U87MG tumour cells; details: Homo sapiens, U-87 MG, 96 h, 4 days of incubation, negative log value of the IC50-value, read-out: cell proliferation pIC50 (converted)
Description: U87MG cells are human glioblastoma cells with wild type p53. In this cell line MDM2 tightly controls p53 expression.
Cellular activity of the compounds of formula (I) was determined on U87MG tumour cells using a colorimetric assay for cell toxicity or survival (see example C.2).
All compounds tested were dissolved in DMSO and further dilutions were made in culture medium. Final DMSO concentrations never exceeded 0.1% (v/v) in cell proliferation assays. Controls contained U87MG cells and DMSO without compound and blanks contained DMSO but no cells.
U87MG cells were seeded in 96-well cell culture plates at 3000 cells/well/100 μl. 24 hours later, medium was changed and compound and/or solvent were added to a final volume of 200 μl. Following 4 days of incubation, medium was replaced by 200 μl fresh medium and cell growth was assessed using a MTT-based assay. Therefore, 25 μl of the MTT solution (0.5% MTT research grade from Serva in phosphate-buffered saline) was added to each well and the cells were further incubated for 2 hours at 37° C. The medium was then carefully aspirated and the blue MTT-formazan product was dissolved by adding to each well 25 μl 0.1 M glycin and 100 μl DMSO. The plates were shaken for another 10 min on a micro plate shaker before reading absorbance at 540 nm by a Biorad micro plate reader.
Within an experiment, the results for each experimental condition are the mean of 3 replicate wells. For initial screening purposes, compounds were tested at a single fixed concentration of 10^−5 M. For active compounds, the experiments were repeated to establish full concentration-response curves. For each experiment, controls (containing no drug) and a blank incubation (containing no cells or drugs) were run in parallel. The blank value was subtracted from all control and sample values. For each sample, the mean value for cell growth (in absorbance units) was expressed as a percentage of the mean value for cell growth of the control. When appropriate, IC50-values (concentration of the drug, needed to reduce cell growth to 50% of the control) were computed using probit analysis for graded data (Finney, D. J., Probit Analyses, 2nd Ed. Chapter 10, Graded Responses, Cambridge University Press, Cambridge 1962). Herein the effects of test compounds are expressed as pIC50 (the negative log value of the IC50-value) (see table F-2).

Compound | melting point | IC50 (U87MG cells)
c1ccc2c(Nc3ccc(NCCc4c[nH]c5ccccc45)cc3)ccnc2c1 (as salt: HCl) [Compound 1] | 170 °C | –
c1cncc(Nc2ccc(NCCc3c[nH]c4ccccc34)cc2)c1 (as salt: HCl) [Compound 6] | 160 °C | –
CCOc1cc(Nc2ccncc2)ccc1NCCc1c[nH]c2ccccc12 (as salt: hydrochloric acid salt) [Compound 2] | 150 °C | –
c1cncc(CNc2ccc(NCCc3c[nH]c4ccccc34)cc2)c1 (as salt: hydrochloric acid salt) [Compound 121] | 130 °C | –
c1ccc2c(CCNc3ccc(NCc4ccncc4)cc3)c[nH]c2c1 (as salt: salt) [Compound 9] | 132 °C | –
O=c1cc(Nc2ccc(NCCc3c[nH]c4ccccc34)cc2)c2ccccc2[nH]1 [Compound 3] | 238 °C | 5010 nM
COc1ccc2c(CNc3ccc(Nc4ccncc4)cc3)c[nH]c2c1 [Compound 7] | 145 °C | 2000 nM
c1ccc2c(CCNc3ccc(CNc4ccncc4)cc3)c[nH]c2c1 [Compound 11] | 122 °C | 5010 nM
c1ccc2c(CCNc3ccc(Nc4ccnc(-c5nnn[nH]5)c4)cc3)c[nH]c2c1 [Compound 87] | 210 °C | > 10000 nM
c1ccc(-c2noc(-c3cc(Nc4ccc(NCCc5c[nH]c6ccccc56)cc4)ccn3)n2)cc1 [Compound 107] | 170 to 174 °C | –
c1ccc(Cc2noc(-c3cc(Nc4ccc(NCCc5c[nH]c6ccccc56)cc4)ccn3)n2)cc1 [Compound 108] | 159 to 161 °C | –
CCOc1cc(Nc2ccncc2)ccc1NCCc1c[nH]c2cc(OC)ccc12 [Compound 177] | – | 50.1 nM
COC(=O)c1cc(Nc2ccc(NCCc3c[nH]c4cc(OC)ccc34)cc2)ccn1 [Compound 178] | – | 1580 nM
COc1ccc2c(CCNc3ccc(Nc4ccnc(CO)c4)cc3OC)c[nH]c2c1 [Compound 181] | – | 251 nM
Cc1ccc2c(CCNc3ccc(Nc4ccncc4)cc3)c[nH]c2c1 [Compound 183] | – | 501 nM
Fc1ccc2c(CCNc3ccc(Nc4ccncc4)cc3)c[nH]c2c1 [Compound 184] | – | 1000 nM
Cc1ccc2[nH]cc(CCNc3ccc(Nc4ccncc4)cc3)c2c1 [Compound 185] | – | 2000 nM
Clc1cccc2[nH]cc(CCNc3ccc(Nc4ccncc4)cc3)c12 [Compound 186] | – | 1000 nM
Cc1cccc2c(CCNc3ccc(Nc4ccncc4)cc3)c[nH]c12 [Compound 187] | – | 398 nM
COc1cccc2c(CCNc3ccc(Nc4ccncc4)cc3)c[nH]c12 [Compound 188] | – | 794 nM
Cc1ccc2[nH]cc(CCNc3ccc(Nc4ccnc(CO)c4)cc3)c2c1 [Compound 189] | – | 3160 nM

Compound | melting point | IC50 (U87MG cells)
c1cnc2[nH]cc(CCNc3ccc(Nc4ccncc4)cc3)c2c1 [Compound 190] | – | 3980 nM
N#CC=Cc1ccc2c(CCNc3ccc(Nc4ccncc4)cc3)c[nH]c2c1 [Compound 194] | – | 6310 nM
O[C@@H]1CCc2c(Nc3ccc(NCCc4c[nH]c5ccccc45)cc3)ccnc21 [Compound 195] | – | 79.4 nM
CCOc1cc(Nc2ccnc3c2CCCC3O)ccc1NCCc1c[nH]c2cc(OC)ccc12 (stereo not shown) [Compound 197] | – | 251 nM
c1ccc2c(CCNc3ccc(Nc4ccnc5[nH]ccc45)cc3)c[nH]c2c1 [Compound 198] | – | 1260 nM
Clc1cccc(CC(CNc2ccc(Nc3ccncc3)cc2)c2c[nH]c3ccccc23)c1 (stereo not shown) [Compound 199] | – | 2000 nM
O=C(c1cc(Nc2ccc(NCCc3c[nH]c4ccccc34)cc2)ccn1)C1CC1 [Compound 204] | – | 7940 nM
CCOc1cc(Nc2ccnc(C(C)O)c2)ccc1NCCc1c[nH]c2cc(OC)ccc12 (stereo not shown) [Compound 205] | – | 794 nM
CC(=O)NCc1cc(Nc2ccc(NCCc3c[nH]c4ccccc34)cc2)ccn1 [Compound 206] | – | 3160 nM
O=C(C(Cc1c[nH]c2ccccc12)Nc1ccc(Nc2ccncc2)cc1)N(CCCCO)Cc1ccccc1 (stereo not shown) [Compound 207] | – | 794 nM
O=C(C(Cc1c[nH]c2ccccc12)Nc1ccc(Nc2ccncc2)cc1)N1CCCC1CO (stereo not shown) [Compound 208] | – | > 10000 nM
O=C(C(Cc1c[nH]c2ccccc12)Nc1ccc(Nc2ccncc2)cc1)N1CCC(CCO)C1 (stereo not shown) [Compound 210] | – | > 10000 nM
CN(C)CCN(Cc1ccccc1)C(=O)C(Cc1c[nH]c2ccccc12)Nc1ccc(Nc2ccncc2)cc1 (stereo not shown) [Compound 211] | – | 63.1 nM
CCN(CCCCO)C(=O)C(Cc1c[nH]c2ccccc12)Nc1ccc(Nc2ccncc2)cc1 (stereo not shown) [Compound 212] | – | 1580 nM
CN(CCO)C(=O)C(Cc1c[nH]c2ccccc12)Nc1ccc(Nc2ccncc2)cc1 (stereo not shown) [Compound 213] | – | > 10000 nM
O=C(C(Cc1c[nH]c2ccccc12)Nc1ccc(Nc2ccncc2)cc1)N1CCCCC1CCCO (stereo not shown) [Compound 216] | – | 2510 nM
O=C(C(Cc1c[nH]c2ccccc12)Nc1ccc(Nc2ccncc2)cc1)N1CCCC(CO)C1 (stereo not shown) [Compound 218] | – | > 10000 nM
CC1(CO)CCCN(C(=O)C(Cc2c[nH]c3ccccc23)Nc2ccc(Nc3ccncc3)cc2)C1 (stereo not shown) [Compound 219] | – | 3980 nM
CC(C)(CO)C1CCN(C(=O)C(Cc2c[nH]c3ccccc23)Nc2ccc(Nc3ccncc3)cc2)CC1 (stereo not shown) [Compound 220] | – | 6310 nM
COCC(O)C1CCN(C(=O)C(Cc2c[nH]c3ccccc23)Nc2ccc(Nc3ccncc3)cc2)CC1 (stereo not shown) [Compound 223] | – | 794 nM
O=C(C(Cc1c[nH]c2ccccc12)Nc1ccc(Nc2ccncc2)cc1)N1CCC(CO)CC1 (stereo not shown) [Compound 224] | – | 3980 nM

The next lines start with the values.

melting point | IC50 (U87MG cells) | Compound
> 250 °C | – | Cn1cc(CCN(c2ccncc2)c2ccc(Nc3ccncc3)cc2)c2ccccc21 (as salt: hydrochloric acid salt) [Compound 10]
208 °C | 5010 nM | O=C(CCc1c[nH]c2ccccc12)Nc1ccc(Nc2ccncc2)cc1 [Compound 8]
104 °C | 79.4 nM | OC1CCCc2c(Nc3ccc(NCCc4c[nH]c5ccccc45)cc3)ccnc21 (stereo not shown) [Compound 111]
194 °C | 31.6 nM | CCOc1cc(Nc2ccnc3c2CCC3O)ccc1NCCc1c[nH]c2cc(OC)ccc12 (stereo not shown) [Compound 112]
– | 251 nM | COc1cc(Nc2ccnc(CO)c2)ccc1NCCc1c[nH]c2ccccc12 [Compound 179]
– | 631 nM | COc1ccc2c(CCNc3ccc(Nc4ccnc(CO)c4)cc3)c[nH]c2c1 [Compound 180]
– | 1580 nM | Clc1ccc2[nH]cc(CCNc3ccc(Nc4ccncc4)cc3)c2c1 [Compound 182]
– | 3160 nM | COc1cccc2[nH]cc(CCNc3ccc(Nc4ccncc4)cc3)c12 [Compound 191]
– | > 10000 nM | Brc1ccc2c(CCNc3ccc(Nc4ccncc4)cc3)c[nH]c2c1 [Compound 192]
– | 1000 nM | OCc1cc(Nc2ccc(NCCc3c[nH]c4cc(F)ccc34)cc2)ccn1 [Compound 193]
– | 200 nM | COc1ccc2c(CCNc3ccc(Nc4ccnc5c4CCC5O)cc3)c[nH]c2c1 (stereo not shown) [Compound 196]
– | 3160 nM | CC(C)(O)c1cc(Nc2ccc(NCCc3c[nH]c4ccccc34)cc2)ccn1 [Compound 201]
– | 3160 nM | CC(=O)OC(C)(C)c1cc(Nc2ccc(NCCc3c[nH]c4ccccc34)cc2)ccn1 [Compound 202]
– | 3160 nM | CCC(O)c1cc(Nc2ccc(NCCc3c[nH]c4ccccc34)cc2)ccn1 (stereo not shown) [Compound 203]
– | > 10000 nM | O=C(C(Cc1c[nH]c2ccccc12)Nc1ccc(Nc2ccncc2)cc1)N1CCC(CO)C1 (stereo not shown) [Compound 209]
– | > 10000 nM | O=C(C(Cc1c[nH]c2ccccc12)Nc1ccc(Nc2ccncc2)cc1)N(CCO)Cc1ccccc1 (stereo not shown) [Compound 214]
– | 3160 nM | COCCN(C)C(=O)C(Cc1c[nH]c2ccccc12)Nc1ccc(Nc2ccncc2)cc1 (stereo not shown) [Compound 215]
– | 3980 nM | O=C(C(Cc1c[nH]c2ccccc12)Nc1ccc(Nc2ccncc2)cc1)N1CCC(CCCO)CC1 (stereo not shown) [Compound 217]
– | 3980 nM | CC(CO)(CO)C1CCN(C(=O)C(Cc2c[nH]c3ccccc23)Nc2ccc(Nc3ccncc3)cc2)CC1 (stereo not shown) [Compound 221]
– | 3980 nM | COCC1(O)CCN(C(=O)C(Cc2c[nH]c3ccccc23)Nc2ccc(Nc3ccncc3)cc2)CC1 (stereo not shown) [Compound 222]
– | 158 nM | CC(O)C1CCN(C(=O)C(Cc2c[nH]c3ccccc23)Nc2ccc(Nc3ccncc3)cc2)CC1 (stereo not shown) [Compound 225]
– | 3160 nM | CC(C)(C)OC(=O)N(CCc1cn(C(=O)OC(C)(C)C)c2ccccc12)c1ccc(Nc2ccncc2)cc1 [Compound 226]
– | 7940 nM | CC(C)(C)OC(=O)N(CCc1cn(C(=O)OC(C)(C)C)c2ccccc12)c1ccc(N(c2ccncc2)c2ccncc2)cc1 [Compound 227]
– | 7940 nM | c1ccc2c(CCNc3ccc(N(c4ccncc4)c4ccncc4)cc3)c[nH]c2c1 [Compound 228]
